The text below walks through data of US20260166046A1, “Inhibitors of methionine aminopeptidase-2 and methods of preparation and uses thereof” (Primetime Life Sciences LLC, priority 2022, published 2026).

For data set [1] the following is noted: in vivo; cited from earlier work.
The next data set deals with T1, Recombinant human MetAP2 (Homo sapiens, UniProt P50579).
T1 construct: purchased Bio-Techne/R&D systems
Nature of the data set: MetAP2 fluorescence assay. In kind it is biochemical. Conditions: recombinant human MetAP2, H-Met-Gly-Pro-AMC substrate. How it is done: MetAP2 Fluorescence Assay
Recombinant human MetAP2 (Bio-Techne/R&D systems) was diluted to 10 μg/mL in the assay buffer (50 mM HEPES, 0.1 mM CoCl2, 100 mM NaCl, pH 7.5). The substrate, H-Met-Gly-Pro-AMC (Bio-Techne/R&D systems), was diluted to 500 μM with 2 μg/mL of the coupling enzyme, recombinant human dipeptidyl peptidase-4 (Bio-Techne/R&D systems), in assay buffer. 50 μL of 10 μg/mL recombinant human METAP2 were loaded into a flat-bottom black 96-well plate (Greiner Bio), and the reaction was initiated by adding 50 μL of the substrate/dipeptidyl peptidase-4 mixture. The reaction mixture was incubated at room temperature for 10 minutes, and the fluorescence was measured for 5 minutes at excitation and emission wavelengths of 380 nm and 460 nm, respectively, in kinetic mode. For IC50determination, 0.5 μL inhibitor solution was added to the reaction mixture. The reaction rates were used to calculate IC50with KaleidaGraph.

A further data set deals with G. lamblia GS. The data set is described as follows: Trophozoite viability IC50 determination, Giardia assay (ATPLite). Format: cell-based. The following applies: Giardia duodenalis, read-out: Cell viability values Mean IC50 (nM) G. lamblia GS. How it is done: (§1) Giardia cultures: Trophozoites of G. lamblia isolates WB and GS were grown anaerobically in borosilicate glass screw-cap culture tubes (Fisher Scientific) at pH 7.0 in modified TYI-S-33 medium. The medium was supplemented with 10% heat-inactivated bovine serum (Sigma-Aldrich) and 0.05% bovine bile (Sigma-Aldrich). To attain low-oxygen-tension conditions, the tubes were filled to 85 to 90% of their total volume capacity and incubated without shaking at 37° C. Subcultures (2×10^5 trophozoites per tube) were made three times a week. Detachment of trophozoites for inoculation was achieved by chilling the cultures on ice for 20 min. Culturing and detachment of Metronidazole-resistant G. lamblia Assemblage A 713M3 and assemblage B 1279-M1 trophozoites followed the same protocol, except that the growth medium was supplemented with metronidazole gradually increasing the concentration to 10 μM. Amebae cultures: E. histolytica strain HM1:IMSS trophozoites were grown at 37° C. in TYI-S-33 medium supplemented with penicillin (100 U/mL) and streptomycin sulfate (100 μg/mL). Trophozoites were grown anaerobically in borosilicate tubes and subcultures were made 1-2 times a week. Trophozoites were detached for inoculation by chilling the cultures on ice for 20 minutes.
(§2) Trophozoite viability IC50determination
(§3) Giardia assays: 10 μL giardia trophozoites in growth medium were plated at a density of 10,000 cells/well in sterile 96-well black clear bottom assay plates. Fumagillin and fumagillol derivatives were 1:3 serially diluted from a 1 μM DMSO stock solution and then 100 μL/well were transferred in duplicate to the assay wells. Metronidazole (control) was 1:3 serially diluted in growth medium from a 100 μM stock solution in DMSO. The assay plates were placed in a BD GasPak™ EZ Container System (BD Diagnostics) to create an anaerobic growth environment. The sealed containers were incubated at 37° C. for 72 hr. Following incubation, 70 μL/well of the ATPLite reagent (PerkinElmer) was added to the assay plates for one-step lysis and ATP level detection. The luminescent signals of the assay plates were measured on an EnSpire 2300 plate reader (PerkinElmer). Concentration response titration points for each compound were fitted to a 4-parameters logistic nonlinear regression model using KaleidaGraph, yielding the IC50value and standard error (SE).
For orientation: Cellular ATP, detected with luciferase, serves as a proxy for viable cell number.

A further data set relates to G. lamblia WB. The data set is described as above. In kind it is cell-based. The following applies: Giardia duodenalis, read-out: Cell viability values Mean IC50 (nM) G. lamblia WB. How it is done: as §1, §2, §3
The test system of a further data set is E. histolytica HM1: IMSS. Nature of the data set: Trophozoite viability IC50 determination, Amebae assay (ATPLite). In kind it is cell-based. Conditions: Entamoeba histolytica, read-out: Cell viability values Mean IC50 (nM) E. histolytica HM1: IMSS. How it is done: as §1, §2, §3
Amebae assays: The protocol is identical to that described above except that the trophozoites were plated at a density of 5000 cells/well because of their larger size.

[2] abbreviates: trophozoites, 72 hr, anaerobic, ATP level.

Read-outs that look alike come from different tables or passages of the source.

T1 sequence (P50579 whole entry): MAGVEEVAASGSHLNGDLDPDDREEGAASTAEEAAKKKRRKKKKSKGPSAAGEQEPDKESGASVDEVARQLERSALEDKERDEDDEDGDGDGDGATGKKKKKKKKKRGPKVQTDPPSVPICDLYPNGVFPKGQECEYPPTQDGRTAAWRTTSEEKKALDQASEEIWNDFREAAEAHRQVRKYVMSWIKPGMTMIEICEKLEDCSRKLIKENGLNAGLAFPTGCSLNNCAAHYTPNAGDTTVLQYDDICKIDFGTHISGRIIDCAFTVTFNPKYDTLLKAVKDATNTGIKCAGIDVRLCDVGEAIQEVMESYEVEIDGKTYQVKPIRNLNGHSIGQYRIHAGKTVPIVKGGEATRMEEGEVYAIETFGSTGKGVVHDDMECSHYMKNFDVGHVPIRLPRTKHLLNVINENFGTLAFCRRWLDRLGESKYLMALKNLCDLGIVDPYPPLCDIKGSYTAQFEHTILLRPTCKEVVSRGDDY

In the case of `CO[C@@H]1[C@H](OC(=O)/C=C/C=C/C=C/C=C/C(=O)O)CC[C@]2(CO2)[C@H]1[C@@]1(C)O[C@@H]1CC=C(C)C` [Fumagillin], in data set [1], the body weight loss is listed as greater than 15%, the “immune-compromised patients with reversible toxic effect on bone marrow (primarily Thrombocytopenia)” value was 33% and the “spontaneous platelet count recovery after halting therapy” value is 1-2 weeks.
Regarding `CO[C@@H]1[C@H](OC(=O)N2CCC(B(O)O)CC2)CC[C@]2(CO2)[C@H]1[C@@]1(C)O[C@@H]1CC=C(C)C` [No 52], the IC50 (in general, the concentration needed to halve the response being measured) at Recombinant human MetAP2 is less than 10 nM; in the data set on G. lamblia GS (72 h), 10.1 to 100 nM; with G. lamblia WB (72 h), 101 to 1000 nM; in the data set on E. histolytica HM1: IMSS (72 h), greater than 1000 nM.
On to `CO[C@@H]1[C@H](OC(=O)N2CC=C(B(O)O)CC2)CC[C@]2(CO2)[C@H]1[C@@]1(C)O[C@@H]1CC=C(C)C` [No 53], for which the IC50 is less than 10 nM at Recombinant human MetAP2, 101 to 1000 nM with G. lamblia GS (72 h), greater than 1000 nM in the data set on G. lamblia WB (72 h) and greater than 1000 nM in the data set on E. histolytica HM1: IMSS (72 h).
As for `CO[C@@H]1[C@H](OC(=O)N(C)c2cc(B(O)O)c3occc3c2)CC[C@]2(CO2)[C@H]1[C@@]1(C)O[C@@H]1CC=C(C)C` [No 54], the IC50 is less than 10 nM at Recombinant human MetAP2, 101 to 1000 nM with G. lamblia GS (72 h), greater than 1000 nM in the data set on G. lamblia WB (72 h) and greater than 1000 nM in the data set with E. histolytica HM1: IMSS (72 h).
As for `CO[C@@H]1[C@H](OC(=O)NCc2ccc(B(O)O)o2)CC[C@]2(CO2)[C@H]1[C@@]1(C)O[C@@H]1CC=C(C)C` [No 55], the half-maximal inhibitory concentration (IC50) was less than 10 nM at Recombinant human MetAP2, 101 to 1000 nM in the data set on G. lamblia GS (72 h), greater than 1000 nM in the data set with G. lamblia WB (72 h) and greater than 1000 nM with E. histolytica HM1: IMSS (72 h).
`CO[C@@H]1[C@H](OC(=O)N2CCc3cc(B(O)O)ccc32)CC[C@]2(CO2)[C@H]1[C@@]1(C)O[C@@H]1CC=C(C)C` [No 58]: the IC50 at Recombinant human MetAP2 is less than 10 nM; in the data set with G. lamblia GS (72 h) it was 101 to 1000 nM; in the data set on G. lamblia WB (72 h), greater than 1000 nM; with E. histolytica HM1: IMSS (72 h), greater than 1000 nM.
Regarding `CO[C@@H]1[C@H](OC(=O)NCCCB(O)O)CC[C@]2(CO2)[C@H]1[C@@]1(C)O[C@@H]1CC=C(C)C` [No 59], the IC50 at Recombinant human MetAP2 is less than 10 nM; with G. lamblia GS (72 h), greater than 1000 nM; with G. lamblia WB (72 h), greater than 1000 nM; in the data set with E. histolytica HM1: IMSS (72 h), greater than 1000 nM.
Regarding `CO[C@@H]1[C@H](OC(=O)N2CCCC2B(O)O)CC[C@]2(CO2)[C@H]1[C@@]1(C)O[C@@H]1CC=C(C)C` (stereo partly drawn) [No 60], the half-inhibitory concentration (IC50) at Recombinant human MetAP2 was less than 10 nM; in the data set with G. lamblia GS (72 h), 10.1 to 100 nM; with G. lamblia WB (72 h), greater than 1000 nM; with E. histolytica HM1: IMSS (72 h) it was greater than 1000 nM.
As for `CO[C@@H]1[C@H](OC(=O)Nc2ccc(B(O)O)c(C(C)C)c2)CC[C@]2(CO2)[C@H]1[C@@]1(C)O[C@@H]1CC=C(C)C` [No 62], the IC50 at Recombinant human MetAP2 was less than 10 nM; with G. lamblia GS (72 h), 101 to 1000 nM; in the data set with G. lamblia WB (72 h), greater than 1000 nM; with E. histolytica HM1: IMSS (72 h), greater than 1000 nM.
For the compound `CO[C@@H]1[C@H](OC(=O)NCCB(O)O)CC[C@]2(CO2)[C@H]1[C@@]1(C)O[C@@H]1CC=C(C)C` [No 63], the IC50 on Recombinant human MetAP2 was less than 10 nM; in the data set on G. lamblia GS (72 h), 10.1 to 100 nM; with G. lamblia WB (72 h), 101 to 1000 nM; in the data set on E. histolytica HM1: IMSS (72 h), 101 to 1000 nM.
For `CO[C@@H]1[C@H](OC(=O)Nc2ccc(Cl)c(B(O)O)c2F)CC[C@]2(CO2)[C@H]1[C@@]1(C)O[C@@H]1CC=C(C)C` [No 64], the IC50 is less than 10 nM on Recombinant human MetAP2, 101 to 1000 nM in the data set on G. lamblia GS (setting [2]), greater than 1000 nM in the data set with G. lamblia WB (setting [2]) and greater than 1000 nM in the data set with E. histolytica HM1: IMSS (setting [2]).
Take `CO[C@@H]1[C@H](OC(=O)Nc2ccc(B(O)O)c(F)c2)CC[C@]2(CO2)[C@H]1[C@@]1(C)O[C@@H]1CC=C(C)C` [No 65]: the IC50 is less than 10 nM at Recombinant human MetAP2, less than 10 nM with G. lamblia GS (72 h), 101 to 1000 nM in the data set on G. lamblia WB (72 h) and greater than 1000 nM with E. histolytica HM1: IMSS (72 h).
On to `CO[C@@H]1[C@H](OC(=O)N[C@@H](CC(C)C)B(O)O)CC[C@]2(CO2)[C@H]1[C@@]1(C)O[C@@H]1CC=C(C)C` [No 67], for which the IC50 is less than 10 nM at Recombinant human MetAP2, 10.1 to 100 nM in the data set on G. lamblia GS (72 h), 101 to 1000 nM in the data set with G. lamblia WB (72 h) and 101 to 1000 nM in the data set with E. histolytica HM1: IMSS (72 h).
As for `CO[C@@H]1[C@H](OC(=O)N[C@H](CC(C)C)B(O)O)CC[C@]2(CO2)[C@H]1[C@@]1(C)O[C@@H]1CC=C(C)C` [No 68], the IC50 at Recombinant human MetAP2 is less than 10 nM; with G. lamblia GS (72 h), 101 to 1000 nM; in the data set with G. lamblia WB (72 h) it was greater than 1000 nM; with E. histolytica HM1: IMSS (72 h) it was greater than 1000 nM.
In the case of `CO[C@@H]1[C@H](OC(=O)N[C@@H](C)B(O)O)CC[C@]2(CO2)[C@H]1[C@@]1(C)O[C@@H]1CC=C(C)C` [No 69], the IC50 at Recombinant human MetAP2 is less than 10 nM; in the data set on G. lamblia GS (72 h), 10.1 to 100 nM; in the data set on G. lamblia WB (72 h) it was greater than 1000 nM; in the data set with E. histolytica HM1: IMSS (72 h) it was greater than 1000 nM.
Take `CO[C@@H]1[C@H](OC(=O)N[C@H](C)B(O)O)CC[C@]2(CO2)[C@H]1[C@@]1(C)O[C@@H]1CC=C(C)C` [No 70]: the IC50 on Recombinant human MetAP2 is less than 10 nM; in the data set on G. lamblia GS (72 h), 10.1 to 100 nM; in the data set on G. lamblia WB (72 h), 101 to 1000 nM; with E. histolytica HM1: IMSS (72 h), greater than 1000 nM.
